Experimental data published in article PMC5428333, “Novel protein acetyltransferase, Rv2170, modulates carbon and energy metabolism in Mycobacterium tuberculosis” (Scientific Reports, 2017).

Target: T1, ICDH1 (Rv3339c) (Mycobacterium tuberculosis, UniProt P9WKL1)
T1 construct: gene icd-1
Assay: NADPH formation at […] nm
Assay type: biochemical
Details: 2 mM NADP+, 0.25 mM DL-isocitrate, 10 mM MgCl2, 5 mM MnCl2, 20 mM Tris-HCl pH 7.5, room temperature

T1 sequence (P9WKL1 whole entry): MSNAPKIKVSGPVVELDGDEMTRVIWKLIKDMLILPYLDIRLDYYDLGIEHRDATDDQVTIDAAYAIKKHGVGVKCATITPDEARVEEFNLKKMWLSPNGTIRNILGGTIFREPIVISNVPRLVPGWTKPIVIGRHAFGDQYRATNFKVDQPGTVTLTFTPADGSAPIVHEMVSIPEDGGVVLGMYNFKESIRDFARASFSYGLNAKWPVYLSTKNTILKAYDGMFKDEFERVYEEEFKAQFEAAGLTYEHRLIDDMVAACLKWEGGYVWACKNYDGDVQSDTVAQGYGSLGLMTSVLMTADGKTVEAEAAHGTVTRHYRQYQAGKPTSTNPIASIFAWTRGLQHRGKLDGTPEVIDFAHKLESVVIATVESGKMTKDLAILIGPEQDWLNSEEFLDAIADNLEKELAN

## NC(=O)c1ccc[n+]([C@@H]2O[C@H](COP(=O)(O)OP(=O)(O)OC[C@H]3O[C@@H](n4cnc5c(N)ncnc54)[C@H](OP(=O)(O)O)[C@@H]3O)[C@@H](O)[C@H]2O)c1 [NADP^+]
  NADPH formation at 340 nm: monitoring the time dependent reduction of NADP^+ to NADPH
